# In patent US20080105961A1, “Ligands of the Molecule Fit (Agt-121) and their Pharmaceutical Use” (priority 2004, published 2008):
# Marks after values point to notes of the source that are not given here.
# Legend:
# [1] = system: FIT mRNA; experiment: Pair-feeding study with indirect calorimetry (24 h): body weight, food intake, total energy expenditure; type: in vivo, Sprague Dawley rats; settings: mean ± SEM; for Day 0 BW: baseline
# Procedure: To investigate the mechanism of weight loss after FIT antisense treatment, a group of Sprague Dawley rats were pair fed to the average daily food intake levels of FIT antisense-treated rats, and indirect calorimetry (24 h) was performed before and after FIT antisense or jumbled ODN ICV infusion.
# Total energy expenditure (TEE) was calculated from measurements of oxygen consumption and carbon dioxide production using indirect calorimetry (Ferrannini, 1988). Due to differences in body weight between the three groups of rats, TEE levels were calculated relative to whole body mass of the animals. […] FIT antisense-treated rats therefore have an inappropriately high level of energy expenditure for their body weight.
# [2] = system: melanocortin receptor; experiment: Feeding response to ICV injection of SHU9119 after three days of ODN or saline infusion; type: in vivo, Sprague Dawley rats; settings: mean ± SEM
# Text: To further analyse the link between FIT and the melanocortin system, the feeding response of Sprague Dawley rats to an ICV injection of SHU9119, a melanocortin receptor antagonist and known feeding stimulator was investigated. After three days of FIT antisense treatment, jumbled oligonucleotide or saline infusion, responses were compared to rats receiving an ICV injection of saline vehicle rather than SHU9119.
# [3] = target: T1, MC4R (Rattus norvegicus, UniProt P70596); experiment: Feeding response to MT II after ODN or saline infusion; type: in vivo, Sprague Dawley rats; settings: mean ± SEM
# T1 construct: from tissue; host or cells: living Sprague Dawley rats (brain)
# T1 sequence (P70596 whole entry, the tested form may be a part): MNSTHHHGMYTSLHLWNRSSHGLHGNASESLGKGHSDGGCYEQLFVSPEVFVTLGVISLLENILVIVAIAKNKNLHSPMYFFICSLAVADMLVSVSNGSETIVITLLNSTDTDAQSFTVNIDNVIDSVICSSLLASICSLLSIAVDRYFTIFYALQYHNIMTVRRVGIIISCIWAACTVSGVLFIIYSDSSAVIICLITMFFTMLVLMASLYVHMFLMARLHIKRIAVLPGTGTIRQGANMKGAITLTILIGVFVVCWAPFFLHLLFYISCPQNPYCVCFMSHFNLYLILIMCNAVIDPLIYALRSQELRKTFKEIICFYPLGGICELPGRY
# Procedure: To further investigate this relationship, antisense suppression of FIT in Sprague Dawley rats was again performed and these animals' responses to administration of the α-MSH analog MT II, a synthetic agonist of the MC4R and known suppressor of feeding. MT II effects on food intake and body weight in saline and jumbled ODN-treated control rats, as well as in FIT antisense-treated rats was measured.
# [4] = system: FIT mRNA; experiment: Hypothalamic FIT gene expression by semi-quantitative RT-PCR in ICV antisense-treated rats; type: in vivo, Sprague Dawley rats; settings: hypothalamus, ICV-treated Sprague Dawley rats, mean ± SEM
# Procedure: To confirm endogenous suppression of FIT in antisense-treated Sprague Dawley rats, FIT mRNA in the hypothalamus of these animals was measured.
# [5] = system: FIT mRNA; experiment: ICV infusion of FIT antisense ODN in Sprague Dawley rats: food intake and body weight; type: in vivo
# Procedure: To confirm the appetite-suppressing and weight-reducing effects of central FIT suppression in an animal model other than P. obesus, the inventors performed the same experiments in Sprague Dawley rats. Male, 12 week old Sprague Dawley rats were infused with either saline, FIT antisense ODN, or jumbled ODN at 24 μg/day for four days. The sequence of the FIT antisense ODN and the jumbled ODN are the same as in Example 2 above.
# [6] = system: FIT mRNA; experiment: ICV infusion of FIT antisense ODN in Psammomys obesus: food intake and body weight; type: in vivo
# Procedure: To further investigate the orexigenic properties of FIT intracerebroventricular (ICV) antisense suppression of FIT was performed. This involved the infusion of FIT antisense oligonucleotides (ODNs) directly into the lateral ventricle space of the brain to suppress endogenous FIT mRNA levels. The effects of this treatment on food intake and body weight were measured and compared to control animals infused with a jumbled sequence ODN, or saline alone. 18 week old, male, lean, normal glucose tolerant (nGT) P. obesus animals were utilised for this study and infused with either saline, FIT antisense ODN, or jumbled ODN at 24 μg/day for four days. The sequence of the FIT antisense ODN was 5′-mu*mg*mg*mc*ma*g*a*a*t*t*g*c*a*mu*mu*mc*mc*mu*-3′, and the jumbled ODN 5′-mc*mg*mc*ma*mc*t*t*a*g*c*t*a*c*mu*mu*mg*mc*mu-3′, where m indicates the presence of a 2′O-Methyl-modified base, and * indicates a phosphorothioate linkage.
# [7] = system: FIT mRNA; experiment: Metabolic heat production by indirect calorimetry (FIG. 1); type: in vivo, Sprague Dawley rats; settings: pair fed, last half of dark phase and majority of light phase
# Text: FIG. 1 is a graphical representation of metabolic heat production in Sprague Dawley rats after three days of FIT antisense-treatment compared to jumbled ad libitum fed and jumbled pair fed rats. *p<0.05 pair fed compared to jumbled group, #p<0.05 pair fed compared to FIT antisense-treated group, ̂p<0.05 compared to both jumbled and FIT antisense-treated groups. Data are mean ±SEM.
# To further dissect the nature of the inability to reduce TEE levels after FIT antisense treatment, metabolic heat production was measured by indirect calorimetry.
# [8] = not pair fed (jumbled group ad libitum fed)
# [9] = pair fed to food intake of FIT antisense-treated rats
# [10] = ICV 24 μg/day, day 1, mean ± SEM
# [11] = ICV 24 μg/day, day 2, mean ± SEM
# [12] = ICV 24 μg/day, day 3, mean ± SEM
# [13] = ICV 24 μg/day, day 4, mean ± SEM
# [14] = baseline body weight, mean ± SEM
# [15] = change compared to day 0, mean ± SEM
substance,measurement,setting,value
"5′-mc*mg*mc*ma*mc*t*t*a*g*c*t*a*c*mu*mu*mg*mc*mu-3′ [Jumbled, reference compound]",Day 0 BW,[1]; [8],404 ± 31 g
same,Day 4 BW,[1]; [8],386 ± 24 g
same,Food Intake,[1]; [8],81.1 ± 10.3 g
same,Δ BW,[1]; [8],-17.3 ± 8.9 g
same,Δ TEE,[1]; not pair fed,-21 ± 17 kJ/day/kg
same,Post TEE,"[1]; not pair fed, total energy expenditure after ICV infusion",492 ± 61 kJ/day/kg
same,Pre TEE,"[1]; not pair fed, total energy expenditure before ICV infusion",513 ± 62 kJ/day/kg
same,Day 0 BW,[1]; [9],357 ± 9 g
same,Day 4 BW,[1]; [9],317 ± 7^a g
same,Food Intake,[1]; [9],39.1 ± 3.2^a g
same,Δ BW,[1]; [9],-39.7 ± 9.9 g
same,Post TEE,"[1]; pair fed, after ICV infusion",456 ± 30^c kJ/day/kg
same,Pre TEE,"[1]; pair fed, before ICV infusion",556 ± 59 kJ/day/kg
same,Δ TEE,[1]; pair fed,-100 ± 28 kJ/day/kg
same,Δ FI,[2]; 48 hr food intake post minus pre injection,0.03 ± 0.02 g/g BW
same,48 hr FI post injection,"[2]; food intake relative to body weight, after ICV SHU9119 or vehicle injection",0.13 ± 0.01 g/g BW
same,48 hr FI pre injection,"[2]; food intake relative to body weight, during ICV infusion, before SHU9119 or vehicle injection",0.10 ± 0.01 g/g BW
same,Δ FI,[3]; 24 hr food intake post minus pre injection,−0.02 ± 0.01 g/g BW
same,24 hr FI post injection,[3]; food intake after MT II or vehicle injection,0.04 ± 0.01 g/g BW
same,24 hr FI pre injection,"[3]; food intake, during ICV infusion, before MT II or vehicle injection",0.06 ± 0.01 g/g BW
same,FIT gene expression,[4],8.4 ± 0.6 arbitrary units
same,"Cumulative food intake, Day 1 Food",[5]; [10],18.7 ± 2.4 g
same,"Cumulative food intake, Day 2 Food",[5]; [11],44.7 ± 4.1 g
same,"Cumulative food intake, Day 3 Food",[5]; [12],72.6 ± 5.1 g
same,"Cumulative food intake, Day 4 Food",[5]; [13],101.5 ± 6.1 g
same,Day 1 BW,"[5]; ICV 24 μg/day, mean ± SEM",457 ± 24 g
same,Day 2 BW,"[5]; ICV 24 μg/day, mean ± SEM",468 ± 23 g
same,Day 3 BW,"[5]; ICV 24 μg/day, mean ± SEM",473 ± 23 g
same,Day 4 BW,"[5]; ICV 24 μg/day, mean ± SEM",477 ± 22 g
same,Day 0 BW,[5]; [14],465 ± 24 g
same,Day 1 ΔBW,[5]; [15],-7.8 ± 3.6 g
same,Day 2 ΔBW,[5]; [15],3.5 ± 3.7 g
same,Day 3 ΔBW,[5]; [15],6.3 ± 3.5 g
same,Day 4 ΔBW,[5]; [15],12.0 ± 4.1 g
same,"Cumulative food intake, Day 1 Food",[6]; [10],8.9 ± 0.5^a g
same,"Cumulative food intake, Day 2 Food",[6]; [11],17.3 ± 1.0^a g
same,"Cumulative food intake, Day 3 Food",[6]; [12],27.3 ± 1.5^a g
same,"Cumulative food intake, Day 4 Food",[6]; [13],38.7 ± 2.7 g
same,Day 1 BW,"[6]; ICV 24 μg/day, mean ± SEM",188 ± 9 g
same,Day 2 BW,"[6]; ICV 24 μg/day, mean ± SEM",188 ± 9 g
same,Day 3 BW,"[6]; ICV 24 μg/day, mean ± SEM",187 ± 9 g
same,Day 4 BW,"[6]; ICV 24 μg/day, mean ± SEM",187 ± 9 g
same,Day 0 BW,[6]; [14],191 ± 9 g
same,Day 1 ΔBW,[6]; [15],-3.8 ± 0.7 g
same,Day 2 ΔBW,[6]; [15],-3.3 ± 0.8 g
same,Day 3 ΔBW,[6]; [15],-4.0 ± 1.6 g
same,Day 4 ΔBW,[6]; [15],-3.5 ± 1.7 g
same,metabolic heat production compared to jumbled-treated ad libitum fed and FIT antisense-treated rats,[7],significantly reduced heat production
